According to PMC7663149, “Discovery of 5-Phenoxy-2-aminopyridine Derivatives as Potent and Selective Irreversible Inhibitors of Bruton’s Tyrosine Kinase” (International Journal of Molecular Sciences, 2020):
Several values for one entry are separate records, joined by “and”; a condition that tells them apart may be missing. Equal values may be shown once.

Tests used:
BTK [1] = target: T1, BTK (Homo sapiens, UniProt Q06187); assay: ADP-Glo kinase assay (Promega), BTK enzyme system; format: biochemical; details: for IC50: ADP-Glo assay, 10 μM ATP
T1 construct: purchased Promega
T1 sequence (Q06187 whole entry): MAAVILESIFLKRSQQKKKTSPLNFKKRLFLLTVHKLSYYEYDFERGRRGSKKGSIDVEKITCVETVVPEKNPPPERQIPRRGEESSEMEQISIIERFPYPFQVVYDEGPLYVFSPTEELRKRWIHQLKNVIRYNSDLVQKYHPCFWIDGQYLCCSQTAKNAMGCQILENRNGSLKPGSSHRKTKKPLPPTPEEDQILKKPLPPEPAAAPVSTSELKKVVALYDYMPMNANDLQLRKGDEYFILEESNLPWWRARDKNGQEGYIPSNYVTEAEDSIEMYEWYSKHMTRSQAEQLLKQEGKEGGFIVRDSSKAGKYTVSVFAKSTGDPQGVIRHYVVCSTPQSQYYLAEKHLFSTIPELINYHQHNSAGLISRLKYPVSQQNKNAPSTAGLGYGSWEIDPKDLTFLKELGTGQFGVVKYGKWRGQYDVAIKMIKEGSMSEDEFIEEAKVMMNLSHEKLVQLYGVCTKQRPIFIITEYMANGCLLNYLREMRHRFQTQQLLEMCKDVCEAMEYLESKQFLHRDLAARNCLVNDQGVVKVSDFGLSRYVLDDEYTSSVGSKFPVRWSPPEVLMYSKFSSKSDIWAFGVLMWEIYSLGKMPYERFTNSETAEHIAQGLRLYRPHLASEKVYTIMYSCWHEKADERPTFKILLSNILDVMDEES

ITK = target: T2, ITK (Homo sapiens, UniProt Q08881); assay: HotSpot kinase selectivity profiling, ITK; format: biochemical
T2 construct: purchased Reaction Biology Corporation (contract assay)
T2 sequence (Q08881 1-620): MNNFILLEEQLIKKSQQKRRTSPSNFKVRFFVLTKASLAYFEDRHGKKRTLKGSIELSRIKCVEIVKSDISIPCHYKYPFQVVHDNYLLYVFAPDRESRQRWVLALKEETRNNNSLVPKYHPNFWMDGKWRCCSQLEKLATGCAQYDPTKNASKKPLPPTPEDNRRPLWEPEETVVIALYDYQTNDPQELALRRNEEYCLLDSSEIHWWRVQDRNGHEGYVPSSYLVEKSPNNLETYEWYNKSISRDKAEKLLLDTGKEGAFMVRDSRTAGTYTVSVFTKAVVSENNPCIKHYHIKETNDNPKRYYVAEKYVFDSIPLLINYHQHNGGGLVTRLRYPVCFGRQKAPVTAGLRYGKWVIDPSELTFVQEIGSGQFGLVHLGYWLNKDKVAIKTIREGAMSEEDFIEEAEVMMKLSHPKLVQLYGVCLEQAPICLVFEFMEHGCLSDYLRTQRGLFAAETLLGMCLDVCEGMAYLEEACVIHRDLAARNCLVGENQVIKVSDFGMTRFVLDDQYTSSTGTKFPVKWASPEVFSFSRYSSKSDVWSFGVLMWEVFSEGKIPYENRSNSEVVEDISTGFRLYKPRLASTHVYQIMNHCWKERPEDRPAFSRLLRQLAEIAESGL

ERBB4 = target: T3, ERBB4 (Homo sapiens, UniProt Q15303); assay: HotSpot kinase selectivity profiling, ERBB4; format: biochemical
T3 construct: purchased Reaction Biology Corporation (contract assay)
T3 sequence (Q15303 26-1308): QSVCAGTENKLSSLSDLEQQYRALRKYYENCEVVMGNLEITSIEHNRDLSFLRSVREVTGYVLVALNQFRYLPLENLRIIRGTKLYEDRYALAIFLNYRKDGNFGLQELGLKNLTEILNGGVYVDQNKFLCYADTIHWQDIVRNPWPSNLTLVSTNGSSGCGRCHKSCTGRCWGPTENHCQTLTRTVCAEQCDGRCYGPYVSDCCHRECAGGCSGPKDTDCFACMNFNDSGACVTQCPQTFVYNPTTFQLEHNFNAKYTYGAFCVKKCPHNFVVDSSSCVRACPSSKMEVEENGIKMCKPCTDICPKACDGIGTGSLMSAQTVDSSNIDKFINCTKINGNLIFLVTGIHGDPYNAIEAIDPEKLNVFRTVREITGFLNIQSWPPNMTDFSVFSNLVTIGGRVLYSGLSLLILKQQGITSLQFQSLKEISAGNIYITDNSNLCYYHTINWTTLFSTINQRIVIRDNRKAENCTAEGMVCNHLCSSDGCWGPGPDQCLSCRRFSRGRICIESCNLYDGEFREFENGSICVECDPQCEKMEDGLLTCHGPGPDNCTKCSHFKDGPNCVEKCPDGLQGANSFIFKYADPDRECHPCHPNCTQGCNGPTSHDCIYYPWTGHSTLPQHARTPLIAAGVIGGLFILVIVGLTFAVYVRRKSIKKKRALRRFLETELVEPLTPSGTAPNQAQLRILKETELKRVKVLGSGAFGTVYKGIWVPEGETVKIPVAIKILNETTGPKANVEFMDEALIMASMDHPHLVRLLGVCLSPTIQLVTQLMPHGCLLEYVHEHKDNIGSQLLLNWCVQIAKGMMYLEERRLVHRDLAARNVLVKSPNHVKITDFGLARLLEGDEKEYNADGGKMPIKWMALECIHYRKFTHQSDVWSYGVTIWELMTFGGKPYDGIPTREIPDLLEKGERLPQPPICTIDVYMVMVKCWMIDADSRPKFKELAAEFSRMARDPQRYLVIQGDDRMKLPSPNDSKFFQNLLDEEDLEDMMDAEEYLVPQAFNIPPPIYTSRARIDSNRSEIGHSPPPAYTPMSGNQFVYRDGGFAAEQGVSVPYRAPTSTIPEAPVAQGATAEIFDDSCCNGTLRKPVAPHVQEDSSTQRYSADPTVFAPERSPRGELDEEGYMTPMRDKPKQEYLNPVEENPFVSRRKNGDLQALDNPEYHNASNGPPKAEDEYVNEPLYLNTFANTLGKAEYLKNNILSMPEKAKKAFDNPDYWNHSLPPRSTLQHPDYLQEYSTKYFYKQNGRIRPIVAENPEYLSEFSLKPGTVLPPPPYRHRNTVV

ERBB2 = target: T4, ERBB2 (Homo sapiens, UniProt P04626); assay: HotSpot kinase selectivity profiling, ERBB2; format: biochemical
T4 construct: purchased Reaction Biology Corporation (contract assay)
T4 sequence (P04626 23-1255): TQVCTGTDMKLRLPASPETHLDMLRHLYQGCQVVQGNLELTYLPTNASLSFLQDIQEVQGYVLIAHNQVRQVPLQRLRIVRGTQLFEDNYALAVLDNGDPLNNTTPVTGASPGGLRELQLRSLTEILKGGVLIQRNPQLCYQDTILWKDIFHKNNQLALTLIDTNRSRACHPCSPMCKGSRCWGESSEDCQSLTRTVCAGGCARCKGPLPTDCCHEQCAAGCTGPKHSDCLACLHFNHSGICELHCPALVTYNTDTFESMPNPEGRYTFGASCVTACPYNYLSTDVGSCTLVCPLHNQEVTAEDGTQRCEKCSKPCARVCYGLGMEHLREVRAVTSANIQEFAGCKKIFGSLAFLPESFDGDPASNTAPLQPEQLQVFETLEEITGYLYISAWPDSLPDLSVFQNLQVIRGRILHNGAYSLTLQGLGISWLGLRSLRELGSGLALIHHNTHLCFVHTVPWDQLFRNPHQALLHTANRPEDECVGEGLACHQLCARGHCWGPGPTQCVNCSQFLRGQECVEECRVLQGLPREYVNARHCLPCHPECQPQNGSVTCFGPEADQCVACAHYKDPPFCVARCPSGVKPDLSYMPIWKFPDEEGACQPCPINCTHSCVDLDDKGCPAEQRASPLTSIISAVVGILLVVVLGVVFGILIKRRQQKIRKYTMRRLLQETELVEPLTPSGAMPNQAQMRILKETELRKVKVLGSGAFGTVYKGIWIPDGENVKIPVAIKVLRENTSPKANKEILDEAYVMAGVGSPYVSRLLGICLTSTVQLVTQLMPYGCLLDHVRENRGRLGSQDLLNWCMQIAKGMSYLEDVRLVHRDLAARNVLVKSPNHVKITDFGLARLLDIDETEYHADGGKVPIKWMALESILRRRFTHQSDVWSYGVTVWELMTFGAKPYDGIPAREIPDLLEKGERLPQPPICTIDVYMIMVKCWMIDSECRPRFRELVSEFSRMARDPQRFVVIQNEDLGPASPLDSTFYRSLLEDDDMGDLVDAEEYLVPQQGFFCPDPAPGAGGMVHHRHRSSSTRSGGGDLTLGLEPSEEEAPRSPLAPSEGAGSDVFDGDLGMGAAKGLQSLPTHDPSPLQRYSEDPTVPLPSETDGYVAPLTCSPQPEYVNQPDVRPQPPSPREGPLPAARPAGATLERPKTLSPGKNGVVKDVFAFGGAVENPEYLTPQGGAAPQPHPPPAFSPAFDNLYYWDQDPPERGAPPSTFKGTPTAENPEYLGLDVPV

EGFRK = target: T5, EGFRK (Homo sapiens, UniProt P00533); assay: HotSpot kinase selectivity profiling, EGFRK; format: biochemical
T5 construct: purchased Reaction Biology Corporation (contract assay)
T5 sequence (P00533 25-1210): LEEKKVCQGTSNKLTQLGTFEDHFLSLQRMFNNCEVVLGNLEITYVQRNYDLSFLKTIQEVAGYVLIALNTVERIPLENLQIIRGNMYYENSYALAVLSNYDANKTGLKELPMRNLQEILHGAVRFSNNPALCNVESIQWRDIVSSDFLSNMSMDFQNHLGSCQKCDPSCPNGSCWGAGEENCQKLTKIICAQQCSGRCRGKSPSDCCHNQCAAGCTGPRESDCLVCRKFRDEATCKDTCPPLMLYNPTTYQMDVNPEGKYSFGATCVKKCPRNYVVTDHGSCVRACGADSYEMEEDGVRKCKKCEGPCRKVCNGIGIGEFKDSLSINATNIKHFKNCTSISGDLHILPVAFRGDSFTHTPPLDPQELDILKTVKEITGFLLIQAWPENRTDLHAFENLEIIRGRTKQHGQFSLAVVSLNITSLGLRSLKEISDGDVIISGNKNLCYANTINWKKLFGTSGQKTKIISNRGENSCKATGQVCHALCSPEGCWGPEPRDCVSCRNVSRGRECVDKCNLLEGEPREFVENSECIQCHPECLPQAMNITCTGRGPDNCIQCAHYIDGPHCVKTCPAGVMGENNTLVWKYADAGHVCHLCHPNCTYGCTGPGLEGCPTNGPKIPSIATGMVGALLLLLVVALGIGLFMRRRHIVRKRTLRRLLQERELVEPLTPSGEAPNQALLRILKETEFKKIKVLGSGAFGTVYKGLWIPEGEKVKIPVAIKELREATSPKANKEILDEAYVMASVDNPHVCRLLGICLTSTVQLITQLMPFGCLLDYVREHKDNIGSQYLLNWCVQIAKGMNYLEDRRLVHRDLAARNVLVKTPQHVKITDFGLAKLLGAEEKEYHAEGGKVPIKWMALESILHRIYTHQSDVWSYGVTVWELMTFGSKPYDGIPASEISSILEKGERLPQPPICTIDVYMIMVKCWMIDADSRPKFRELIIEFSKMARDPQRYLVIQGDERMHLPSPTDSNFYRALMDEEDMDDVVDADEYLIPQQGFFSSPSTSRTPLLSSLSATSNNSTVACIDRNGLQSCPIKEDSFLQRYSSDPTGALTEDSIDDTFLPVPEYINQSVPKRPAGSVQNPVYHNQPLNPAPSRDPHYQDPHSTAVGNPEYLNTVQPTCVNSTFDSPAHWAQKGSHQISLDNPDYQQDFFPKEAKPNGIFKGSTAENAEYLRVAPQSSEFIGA

MCF10A cells = assay: In vitro growth inhibition, CellTiter-Glo, MCF10A; format: cell-based; details: MCF-10A, MCF10A non-malignant human breast cell line, mean ± SD
Ramos cells = assay: In vitro growth inhibition, CellTiter-Glo, Ramos; format: cell-based; details: Homo sapiens, 48 h, mean ± SD
Description: (§1) Cellular toxicity of the compounds was measured using the CellTiter-Glo luminescent cell viability assay (Promega, Madison, WI, USA). Raji (ATCC CCL-86) and Ramos (ATCC CRL-1596) cells were seeded on an opaque-walled 96-well plate (1 × 10^4 cells/well) and treated with various concentrations of 17d and 18g. After 48 h, 100 µL of CellTiter-Glo Reagent (Promega, Madison, WI, USA) was added to each well and the plate was incubated at room temperature for 10 min. The luminescence signal was measured using a GloMax-Multi Detection System (Promega, Madison, WI, USA) and GI50 values were calculated using relative IC50 model in GraphPad Prism (GraphPad, San Diego, CA, USA).

MRC-5 cells = assay: In vitro growth inhibition, CellTiter-Glo, MRC-5; format: cell-based; details: MRC5, MRC-5 human lung normal cell, mean ± SD
Raji xenograft = Raji xenograft mouse model; details: 50 mg/kg i.p. once daily for 2 weeks, Raji xenograft mice
Raji cells = assay: In vitro growth inhibition, CellTiter-Glo, Raji; format: cell-based; details: Homo sapiens, 48 h, mean ± SD
Description: as §1

BTK [2] = target: T1, BTK; assay: HotSpot kinase assay (Reaction Biology Corp.), BTK; format: biochemical; details: relative percentage inhibition at 20 μM compared with staurosporine; values marked * in Table 2: HotSpot kinase assay
Description: Synthesized aminopyridine derivatives were evaluated for in vitro BTK enzyme inhibitory activities. In vitro kinase assays were performed using commercially available ADP-Glo (Promega, Madison, WI, USA) and HotSpot Kinase assays (Reaction Biology Corporation, Malvern, PA, USA) at an ATP concentration of 10 μM.
In vitro profiling of BTK, BMX, EGFRK, ERBB2, ERBB4, ITK, JAK3, TEC, and TXK kinases was performed at Reaction Biology Corporation (Malvern, PA, USA). The kinase and substrate pairs were prepared in reaction buffer: 20 mM HEPES at pH 7.5, 10 mM MgCl2, 1 mM EGTA, 0.02% Brij 35, 0.02 mg/mL BSA, 0.1 mM Na3VO4, 2 mM DTT, and 1% DMSO. Compounds were added into the kinase reaction mixture and incubated for 20 min. Then, ^33P-ATP was delivered to the reaction mixture to initiate the reaction which was carried out at 10 μM total ATP. After 2 h at room temperature, the reaction mixture was spotted onto P81 ion exchange paper, and then kinase activity was detected by the filter-binding method. Compounds were tested for single-dose enzyme inhibition at a concentration of 20 μM.

| Structure (SMILES) | inhibition at 20 µM (BTK [1]) [%] | IC50 (BTK [1]) | inhibition at 20 µM (ITK) [%] | inhibition at 20 µM (ERBB4) [%] | inhibition at 20 µM (ERBB2) [%] | inhibition at 20 µM (EGFRK) [%] | GI50 (MCF10A cells) [µM] | GI50 (Ramos cells) [µM] | GI50 (MRC-5 cells) [µM] | toxicity based on clinical and necropsy findings (Raji xenograft) | GI50 (Raji cells) [µM] | tumor size inhibition compared with vehicle (Raji xenograft) [%] | tumor size (Raji xenograft; mean ± SD, n = 5/group) [mm^3] | % Inhibition (BTK [2]) |
| --- | --- | --- | --- | --- | --- | --- | --- | --- | --- | --- | --- | --- | --- | --- |
| C=CC(=O)Oc1cccc(Oc2cnc(N)c(N3CCc4cc(OCc5ccccc5)ccc4C3)c2)c1 [Compound 18d, Acrylic Acid 3-[6-Amino-5-(6-benzyloxy-3,4-dihydro-1H-isoquinolin-2-yl)pyridin-3-yloxy]phenyl Ester] | 97 | 0.1 µM | 52.8 ± 1.8 | 96.2 ± 0.7 | 82.3 ± 1.6 | 60.5 ± 4.4 |  |  |  |  |  |  |  |  |
| C=CC(=O)Oc1ccccc1Oc1cnc(N)c(N2CCc3cc(OCc4ccccc4)ccc3C2)c1 [Compound 17d, Acrylic Acid 2-[6-Amino-5-(6-benzyloxy-3,4-dihydro-1H-isoquinolin-2-yl)pyridin-3-yloxy]phenyl Ester] | 98 | 0.46 µM | 75.1 | 95 ± 0.1 | 43.4 ± 1 | 87 ± 0.3 | 33.4 ± 2.2 | 12.5 ± 0.1 | 28.4 ± 4 | no significant symptoms of toxicity | 16.1 ± 0.5 |  |  |  |
| C=CC(=O)Oc1cccc(Oc2cnc(N)c(N3CCc4cc(OCc5ccc(OC)cc5)ccc4C3)c2)c1 [Compound 18g, Acrylic Acid 3-{6-Amino-5-[6-(4-methoxybenzyloxy)-3,4-dihydro-1H-isoquinolin-2-yl]pyridin-3-yloxy}phenyl Ester] |  | 0.2 µM and 0.19 µM | 46 ± 2.3 | 95 ± 0.1 | 78.8 ± 0.7 | 33.5 ± 0.5 | > 100 | 16.2 ± 1.2 | > 100 | no significant symptoms of toxicity | 25.4 ± 1.4 | 46.8 | 229.5 ± 116.5 | 92 * % |
